Measured values as given in patent EP0151577B1 (priority 1983, dated 1984).

What was measured:
[1] = Acute toxicity in the mouse, DL50 i.v. (Behrens-Karber); details: in vivo, iv, souris, survivors checked 15 days after administration, read-out: DL 50 i.v.
Source text: D'autres études pharmacologiques ont été entreprises, en particulier pour apprécier la toxicite aigue chez la souris. Les divers produits étudiés sont administrés a doses croissantes en progression arithmetique a des lots de 5 souris femelles SWISS, EOPS, NMRI/Han pesant 23 a 24 g.
Les produits sont solubilises dans I'eau distillée. Les DL 50 sont calculées par la méthode de BEHRENS (B.) et KARBER (C.). Le nombre d'animaux survivants dans les differents lots est vérifié 15 jours après I'administration des produits. La toxicité aigue (DL 50) exprimée en g/kg est supérieure a 5, avec la voie d'administration i.v. pour le DF-5HTP un produit représentatif selon l'invention.

souris [2] = experiment: Anticonvulsant activity, MES; format: in vivo
Source text: Activite anticonvulsivante (MES): % de protection Temps de sommeil au pentobarbital: WYATT, R.J., ZARKONE, V. […], K., DEMENT, W.C., SMYDER, F. and SJOERDSMA, A., Effects of 5-Hydroxytryptophan on the sleep of normal human subjects. Electroencephaly and Clinical Neurophysiology 30, 5051971.

M. Leprae = experiment: Incorporation of 3H-DOPA by M. leprae in vitro; format: cell-based, Mycobacterium leprae; details: 6 h
Source text: Le tableau 6 rassemble des résultats d'essai concernant l'activité du DF-5HTP sur l'incorporation de la DOPA dans les Mycobacteries de la lèpre. Le protocole experimental était celui décrit dans JAYARAMAN, P., […], P.R., MESTER, M. and MESTER, L. Inhibition of the incorporation of ^3H-DOPA in Mycobacterium leprae by Desoxyfructo-serotonin. Biochem. Pharm., 29, 2526,1980.
On a inoculé 5 x 10^6 M. leprae par tube; le milieu était un tampon phosphate à pH 6,8. La quantité de 3H-DOPA était de 1 µ. Ci/tube.
Protocole: Chaque tube de 0,5 ml est inocule de 5 x 10^6 M. leprae et de 1 µ Ci de ^3H-DOPA. Après 6 heures, I'incorporation de la DOPA radioactive est enregistrée en DPM selon la technique utilisée dans JAYARAMAN, P., […], P.R., MESTER, M. and MESTER, L. Inhibition of the Incorporation of ^3H-DOPA in Mycobacterium leprae by Desoxyfructo-serotonin. Biochem. Pharm., 29,2526,1980.

souris [3] = experiment: General pharmacological profile: spontaneous motor activity; format: in vivo; details: souris
Source text: (§1) Activite motrice spontanée: MODIGH, K., Central and peripheral effects of 5-hydroxytryptophan on motor activity in mice. Psychopharmacologia (Berlin), 23, 48, 1972. Cadence respiratoire: […], S., and VALZELLI, L. Serotonin and cardiovascular system, Chapter 9, in "Serotonin", Elsevier Publ. Co. Amsterdam 1965.

[4] = In vivo metabolism of radioactive compounds, hamster plasma; details: après 24 heures, figure 2
Source text: La mesure de la radioactivite des diverses fractions isolées du sang des hamsters traités permet de caractériser les metabolites, lesquels sont ainsi isolés et identifies par électrophorèse. Les metabolites acides HIAA et IAA sont séparés ensemble.
On a porté le temps en abscisses (exprimé en heures) et en ordonnées le pourcentage du compose caractérisé dans le plasma.

souris [5] = experiment: Rotarod test
Description: Les mesures ont été faites a 15, 30 et 60 minutes après I'administration par voie intrapéritonéale (i.p.) a des souris.

souris [6] = experiment: General pharmacological profile: respiratory rate; format: in vivo; details: souris
Source text: as §1
COHEN, Y. and BLANCHARD, P. Influence de la chelation du calcium sur les effets tensionnels de la sérotonine chez le chien. J. Physiol., 52, 569,1960.
BRAUNWALD, E. Control of myocardial oxygen consumption: Physiologic and clinical considerations. Am. J. Cardiol., 27 (4), 416,1971.

DOPA-oxydase = experiment: Inhibition in the DOPA-oxydase + DOPA system; format: biochemical, champignons; details: concentrations inférieures a 10-^4M; figure 1
Source text: D'autres essais ont été entrepris pour mesurer l'inhibition exercée par la DF-5HTP dans le système DOPA-oxydase + DOPA, par comparaison avec la désoxyfructosérotonine (DFS). Pour ce qui concerne l'inhibition de la DOPA-oxydase, on pourra se reporter a la methode de N.H. Horowitz, M. Fling et et C. Horn "Tyrosinase", dans Methods in Enzymology Vol. XVII- A, p. 615, Editors: Tabor and Tabor, Ac. Press, 1970.
L'effet de la désoxyfructo-sérotonine (DFS) sur les Mycobacteries de la lèpre est attribue a son effet inhibiteur sur la DOPA-oxydase de M. leprae. Une DOPA-oxydase semblable, isolée de champignons, est commercialisée (SIGMA) et a servi comme modèle afin de comparer l'effet inhibiteur de la DFS et du désoxyfructo-5-hydroxytryptophane sur cette DOPA-oxydase.
La figure 1 est un graphique dans lequel on a porté en abscisses la concentration de I'agent de traitement utilise et en ordonnées les valeurs de la coloration du milieu mesurée a 540 mµ, celles-ci étant en effet representatives de la concentration en substance capable de colorer le milieu. En presence d'un inhibiteur, la formation de la coloration est empêchée. Ainsi, plus les valeurs portées en ordonnées sont faibles, meilleure est I'inhibition procurée par le compose essayé.

O=C(O)C(Cc1c[nH]c2ccc(O)cc12)NCC1(O)OCC(O)C(O)C1O (stereo not shown) [DF-5HTP, N-1-desoxyfructo-5-hydroxytryptophane]
LD50 at 360 h [1]: > 5000 mg/kg
Activité anticon-vulsivante MES % protection (souris [2]; 100 mg/kg (ip), 15 min, Tableau 2): 0%
Activité anticon-vulsivante MES % protection (souris [2]; 100 mg/kg (ip), 30 min): 0%
Activité anticon-vulsivante MES % protection (souris [2]; 100 mg/kg (ip), 60 min): 0%
Activité anticon-vulsivante MES % protection (souris [2]; 174 mg/kg (ip), 15 min): 20%
Activité anticon-vulsivante MES % protection (souris [2]; 174 mg/kg (ip), 30 min): 20%
Activité anticon-vulsivante MES % protection (souris [2]; 174 mg/kg (ip), 60 min): 0%
incorporation de 3H-DOPA par M. Leprae (M. Leprae; 1 µg/ml, Armadillo M.Leprae N°2275/5, témoins 5977): 2922 DPM
incorporation de 3H-DOPA par M. Leprae (M. Leprae; 1 µg/ml, Armadillo M.Leprae N°2275/5 Tués par la chaleur, témoins 915): 1008 DPM
incorporation de 3H-DOPA par M. Leprae (M. Leprae; 1 µg/ml, Armadillo M.Leprae N°2457/103, témoins 4215): 2555 DPM
incorporation de 3H-DOPA par M. Leprae (M. Leprae; 1 µg/ml, Armadillo M.Leprae N°2457/103 Tués par la chaleur, témoins 2855): 2660 DPM
incorporation de 3H-DOPA par M. Leprae (M. Leprae; 5 µg/ml, Armadillo M.Leprae N°2275/5, témoins 5977): 1599 DPM
incorporation de 3H-DOPA par M. Leprae (M. Leprae; 5 µg/ml, Armadillo M.Leprae N°2275/5 Tués par la chaleur, témoins 915): 732 DPM
incorporation de 3H-DOPA par M. Leprae (M. Leprae; 5 µg/ml, Armadillo M.Leprae N°2457/103, témoins 4215): 1930 DPM
incorporation de 3H-DOPA par M. Leprae (M. Leprae; 5 µg/ml, Armadillo M.Leprae N°2457/103 Tués par la chaleur, témoins 2855): 2675 DPM
Activité motrice spontanée (souris [3]; 100 mg/kg (ip), Tableau 2): légère augmentation
Activité motrice spontanée (souris [3]; 174 mg/kg (ip)): augmentation
taux du compose non transformé dans le plasma [4]: considerable
Essai à la tige Rotarod: Défaut de coordination musculaire observé (Nbre de souris) (souris [5]; 100 mg/kg (ip), 15 min): 0/5
Essai à la tige Rotarod: Défaut de coordination musculaire observé (Nbre de souris) (souris [5]; 100 mg/kg (ip), 30 min): 0/5
Essai à la tige Rotarod: Défaut de coordination musculaire observé (Nbre de souris) (souris [5]; 100 mg/kg (ip), 60 min): 0/5
Essai à la tige Rotarod: Défaut de coordination musculaire observé (Nbre de souris) (souris [5]; 174 mg/kg (ip), 15 min): 0/5
Essai à la tige Rotarod: Défaut de coordination musculaire observé (Nbre de souris) (souris [5]; 174 mg/kg (ip), 30 min): 0/5
Essai à la tige Rotarod: Défaut de coordination musculaire observé (Nbre de souris) (souris [5]; 174 mg/kg (ip), 60 min): 0/5
Performance à l'essai Rotarod Moyenne (Sec) (souris [5]; 174 mg/kg i.p., témoin 11,3 ± 3,1): 16,4 ± 2,4 (30) Sec
Cadence respira-toire (souris [6]; 100 mg/kg (ip), Tableau 2): sans effet
Cadence respira-toire (souris [6]; 174 mg/kg (ip)): sans effet
activité inhibitrice sur la DOPA-oxydase (coloration du milieu mesurée a 540 mµ) (DOPA-oxydase): comparable a celle de la DFS
